Data published in paper PMC5834492, “Antimycobacterial drug discovery using Mycobacteria-infected amoebae identifies anti-infectives and new molecular targets” (Scientific Reports, 2018).
Like-named read-outs stand apart in the source and are kept apart here.

How the values were obtained:
[1] = test system: Mtb H37Rv; set-up: method as in Sorrentino et al, 2015; conditions: ref Sorrentino et al, 2015; cited from earlier work
[2] = test system: Mtb H37Rv in THP-1; set-up: method as in Sorrentino et al, 2015; conditions: ref Sorrentino et al, 2015, cited from earlier work; for Extracellular MIC90/ Inracellular MIC90: ratio
[3] = test system: M. marinum in A. castellanii; type: cell-based, Mycobacterium marinum; conditions: 10 µM
[4] = test system: M. marinum GFP; type: cell-based, Mycobacterium marinum; conditions: for M. marinum GFP normalised growth, control=1.00, mean: 10 µM, antibiotic assay
[5] = test system: D. discoideum GFP-ABD; conditions: 10 µM
[6] = test system: M. marinum luxCDABE; type: cell-based, Mycobacterium marinum; conditions: 10 µM
[7] = test system: M. marinum in BV2 microglial cells; type: cell-based, Mycobacterium marinum
[8] = THP1 / Mtb H37Rv infection assay

Structure (SMILES)	Extracellular MIC90 [1] [µM]	Intracelullar MIC90 in THP-1 [2, 8] [µM]	Extracellular MIC90/ Inracellular MIC90 [2]	A. castellanii / M. marinum normalised growth, control=1.00, mean [3]	M. marinum GFP normalised growth, control=1.00, mean [4]	D. discoideum GFP-ABD normalised growth, control=1.00, mean [5]	M. marinum luxCDABE normalised growth, control=1.00, mean [6]	IC50 [7] [µM]	BV2 / M. marinum normalised growth, control=1.00, mean ([7]; 10 µM)	Intracelullar MIC90 in THP-1 ([2]; Mtb H37Rv-infected THP1 cells) [µM]	Hits A. castellanii/M. marinum assay True/False [3]	M. marinum luxCDABE normalised growth, control = 1.00, mean [6]	hit in BV2/M. marinum assay True/False ([7]; 10 µM)	antibiotic activity in M. marinum growth assay ([4]; broth)
Cc1ccc(C(=O)Nc2nc(-c3ccccn3)cs2)s1 [GSK1372568A]	8.4	50	0.17	1.35	0.69	0.31	0.00	5.33	0.95					
COc1ccc(Nc2ccccc2NC(=O)c2ccc(O)nc2)cc1 [GSK1051703A]	7.1	5.55	1.28	1.00	0.84	1.00	1.00	6.47	0.65					
Cc1occc1C(=O)Nc1nc(-c2ccccn2)nc2ccsc12 [GSK237561A]	4	1.85	2.16	1.57	0.31	-0.0741	0.00	3.9	0.73					
O=C(NC12CC3CC(CC(C3)C1)C2)c1cc2cc(Cl)ccc2[nH]1 [GW623128X]	1	0.07	14.28	0.51	0.86	1.06	0.00	4.92	0.66					
Cl.O=C(c1ccco1)N(CCCn1ccnc1)c1nc2c(Cl)cccc2s1 [GSK1788487A]	8.4	50	0.17	1.34	0.66	0.32	0.09	4.96	0.94					
O=C(C=Cc1cccs1)N1CCN(Cc2ccc3c(c2)OCO3)CC1 [GW861072X]	0.3	0.61	0.49	0.54	0.05	0.68	0.00	7.99	0.48	0.61	FALSE	0,00	TRUE	
Cc1nc2ccccn2c1C(=O)NCc1ccccc1 [GSK957094A]	2	5.55	0.36	0.54	0.0746	0.93	0.11	7.59	0.52					
Cc1cc(OCC(=O)Nc2ccccc2)c2cc(Br)ccc2n1 [GW857165X]	3.3	16.65	0.2	0.83	0.81	0.90	0.00	3.52	0.72					
COc1ccc(-c2nc(-c3cccc(NC(=O)Cc4ccc(F)cc4)c3)no2)cc1OC [GSK2043267A]	3.7	0.21	17.62	0.86	0.97	1.18	0.00	6.69	0.77					strong antibiotic activity
